From ChEMBL document CHEMBL1121629, “1-(Aminoalkyl)-6-aryl-4-H-s-triazolo[4,3-a][1,4]benzodiazepines with antianxiety and antidepressant activity” (1980)

Experiments:
Assay type in all cases: functional
[1] = species on record: Mus musculus; test: Tested for potentiation of yohimbine toxicity in aggregated mice(Y)
[2] = species on record: Mus musculus; test: Tested for antagonism of bicuculline-induced tonic-extensor convulsions (B) in mice
[3] = species on record: Mus musculus; test: Tested for antagonism of nicotine-induced tonic extensor convulsions (TE) in mice
[4] = species on record: Mus musculus; test: Tested for antagonism of oxotremorine hypothermia (OX) in mice
[5] = species on record: Mus musculus; test: Tested for antagonism of nicotine-induced death (D) in mice
[6] = species on record: Mus musculus; test: Tested for potentiation of gamma-butyrolactone induced sleep (gamma-B) in mice
[7] = species on record: Mus musculus; test: Tested for antagonism of pentylenetetrazole-induced clonic convulsions (P) in mice
[8] = species on record: Mus musculus; test: Prolongation of hypoxic survival time (HS) in mice
[9] = species on record: Mus musculus; test: Tested for stereotyped gnawing and licking behavior of mice pretreated with apomorphine (AG)

SMILES: CN(C)Cc1nnc2n1-c1ccc(Br)cc1C(c1ccccn1)=NC2
- ED50 [1]: 29.7 mg/kg
- ED50 [2]: 1.3 mg/kg
- ED50 [3]: 1 mg/kg
- ED50 [4]: 12.5 mg/kg
- ED50 [5]: 1 mg/kg
- ED50 [6]: 1.3 mg/kg
- ED50 [7]: 1.9 mg/kg
- ED50 [8]: 30 mg/kg
- ED50 [9]: > 50 mg/kg

SMILES: Clc1ccc2c(c1)C(c1ccccc1)=NCc1nnc(CN3CCCC3)n1-2
- ED50 [1]: 100 mg/kg
- ED50 [2]: 12.5 mg/kg
- ED50 [3]: 3.6 mg/kg
- ED50 [4]: 56 mg/kg
- ED50 [5]: 4.5 mg/kg
- ED50 [6]: 7.4 mg/kg
- ED50 [7]: 17.7 mg/kg
- ED50 [8]: 2 mg/kg
- ED50 [9]: 14.9 mg/kg

SMILES: CN(C)CCCc1nnc2n1-c1ccc(Cl)cc1C(c1ccccc1)=NC2
- ED50 [1]: > 100 mg/kg
- ED50 [2]: 56 mg/kg
- ED50 [3]: 10 mg/kg
- ED50 [4]: 75 mg/kg
- ED50 [5]: 10 mg/kg
- ED50 [6]: 36.6 mg/kg
- ED50 [7]: 13.3 mg/kg
- ED50 [8]: > 50 mg/kg
- ED50 [9]: 42 mg/kg

SMILES: CN(C)Cc1nnc2n1-c1ccc(Cl)cc1C(c1ccccc1Cl)=NC2
- ED50 [1]: > 30 mg/kg
- ED50 [2]: 0.8 mg/kg
- ED50 [3]: 0.06 mg/kg
- ED50 [4]: > 30 mg/kg
- ED50 [5]: 0.06 mg/kg
- ED50 [6]: 0.3 mg/kg
- ED50 [7]: 0.1 mg/kg
- ED50 [8]: 0.1 mg/kg
- ED50 [9]: 17.8 mg/kg

SMILES: CN(C)CCc1nnc2n1-c1ccc(Cl)cc1C(c1ccccc1)=NC2
- ED50 [1]: 30 mg/kg
- ED50 [2]: 21 mg/kg
- ED50 [3]: 2.8 mg/kg
- ED50 [4]: 6 mg/kg
- ED50 [5]: 2.5 mg/kg
- ED50 [6]: 15 mg/kg
- ED50 [7]: 25 mg/kg
- ED50 [8]: > 20 mg/kg
- ED50 [9]: 28 mg/kg

SMILES: Clc1ccc2c(c1)C(c1ccccc1)=NCc1nnc(CCCN3CCN(c4ccccc4)CC3)n1-2
- ED50 [2]: > 50 mg/kg
- ED50 [3]: 89 mg/kg
- ED50 [5]: 79 mg/kg
- ED50 [6]: 10 mg/kg
- ED50 [7]: > 50 mg/kg
- ED50 [8]: > 50 mg/kg

SMILES: C#CCNC(C)c1nnc2n1-c1ccc(Cl)cc1C(c1ccccc1)=NC2 (stereo not given)
- ED50 [1]: 21 mg/kg
- ED50 [2]: 1.6 mg/kg
- ED50 [3]: 1.1 mg/kg
- ED50 [4]: > 50 mg/kg
- ED50 [5]: 1.1 mg/kg
- ED50 [6]: 0.8 mg/kg
- ED50 [7]: 3.1 mg/kg
- ED50 [8]: 20 mg/kg
- ED50 [9]: > 50 mg/kg

SMILES: C#CCN(C)Cc1nnc2n1-c1ccc(Cl)cc1C(c1ccccc1Cl)=NC2
- ED50 [1]: > 50 mg/kg
- ED50 [2]: 0.1 mg/kg
- ED50 [3]: 0.036 mg/kg
- ED50 [4]: > 50 mg/kg
- ED50 [5]: 0.045 mg/kg
- ED50 [6]: 0.1 mg/kg
- ED50 [7]: 0.021 mg/kg
- ED50 [8]: 0.4 mg/kg
- ED50 [9]: 21 mg/kg

SMILES: CN(Cc1nnc2n1-c1ccc(Cl)cc1C(c1ccccc1)=NC2)C1CC1
- ED50 [1]: > 50 mg/kg
- ED50 [2]: 3.1 mg/kg
- ED50 [3]: 0.55 mg/kg
- ED50 [4]: > 50 mg/kg
- ED50 [5]: 0.28 mg/kg
- ED50 [6]: 1.9 mg/kg
- ED50 [7]: 3.7 mg/kg
- ED50 [8]: 6 mg/kg
- ED50 [9]: > 50 mg/kg

SMILES: Clc1ccc2c(c1)C(c1ccccc1)=NCc1nnc(CNC3CC3)n1-2
- ED50 [1]: > 50 mg/kg
- ED50 [2]: 1.6 mg/kg
- ED50 [3]: 0.25 mg/kg
- ED50 [4]: > 50 mg/kg
- ED50 [5]: 0.28 mg/kg
- ED50 [6]: 1.1 mg/kg
- ED50 [7]: 3.1 mg/kg
- ED50 [8]: 40 mg/kg
- ED50 [9]: > 50 mg/kg

SMILES: CN1C(=O)CN=C(c2ccccc2)c2cc(Cl)ccc21 [DIAZEPAM]
- ED50 [1]: > 50 mg/kg
- ED50 [2]: 2.6 mg/kg
- ED50 [3]: 0.28 mg/kg
- ED50 [4]: > 50 mg/kg
- ED50 [5]: 0.28 mg/kg
- ED50 [6]: 0.035 mg/kg
- ED50 [7]: 0.1 mg/kg
- ED50 [8]: 0.2 mg/kg
- ED50 [9]: > 50 mg/kg

SMILES: CN(C)Cc1nnc2n1-c1ccc(Cl)cc1C(c1ccccc1)NC2 (stereo not given)
- ED50 [1]: > 50 mg/kg
- ED50 [2]: 42 mg/kg
- ED50 [3]: 25 mg/kg
- ED50 [4]: > 50 mg/kg
- ED50 [5]: 25 mg/kg
- ED50 [6]: 5.3 mg/kg
- ED50 [7]: 14.9 mg/kg
- ED50 [8]: > 50 mg/kg
- ED50 [9]: > 50 mg/kg

SMILES: CCN(CC)CCCc1nnc2n1-c1ccc(Cl)cc1C(c1ccccc1)=NC2
- ED50 [1]: 56 mg/kg
- ED50 [2]: > 100 mg/kg
- ED50 [3]: 11 mg/kg
- ED50 [4]: 31.6 mg/kg
- ED50 [5]: 13 mg/kg
- ED50 [6]: > 100 mg/kg
- ED50 [7]: > 100 mg/kg
- ED50 [8]: > 50 mg/kg
- ED50 [9]: 100 mg/kg

SMILES: CN(C)Cc1nnc2n1-c1ccc(Cl)cc1C(c1ccccc1)=NC2 [ADINAZOLAM]
- ED50 [2]: 0.7 mg/kg
- ED50 [5]: 0.13 mg/kg
- ED50 [6]: 1.6 mg/kg
- ED50 [7]: 0.9 mg/kg
- ED50 [8]: 5 mg/kg

SMILES: CN(C)Cc1nnc2cc(-c3ccccc3)c3cc(Cl)ccc3n12
- ED50 [2]: > 50 mg/kg
- ED50 [3]: 89 mg/kg
- ED50 [4]: > 50 mg/kg
- ED50 [5]: 89 mg/kg
- ED50 [6]: > 50 mg/kg
- ED50 [7]: > 50 mg/kg
- ED50 [9]: > 50 mg/kg

SMILES: CN(Cc1nnc2n1-c1ccc(Cl)cc1C(c1ccccc1)=NC2)CC1CC1
- ED50 [1]: > 50 mg/kg
- ED50 [2]: 2.6 mg/kg
- ED50 [3]: 0.4 mg/kg
- ED50 [4]: > 50 mg/kg
- ED50 [5]: 0.6 mg/kg
- ED50 [6]: 1.1 mg/kg
- ED50 [7]: 3.1 mg/kg
- ED50 [8]: 30 mg/kg
- ED50 [9]: > 50 mg/kg

SMILES: CC(N)c1nnc2n1-c1ccc(Cl)cc1C(c1ccccc1Cl)=NC2 (stereo not given)
- ED50 [1]: > 50 mg/kg
- ED50 [2]: 0.2 mg/kg
- ED50 [3]: 0.023 mg/kg
- ED50 [4]: > 50 mg/kg
- ED50 [5]: 0.025 mg/kg
- ED50 [6]: 0.2 mg/kg
- ED50 [7]: 2.2 mg/kg
- ED50 [8]: 0.02 mg/kg
- ED50 [9]: > 50 mg/kg

SMILES: CCN(CC)OCc1nnc2n1-c1ccc(Cl)cc1C(c1ccccc1)=NC2
- ED50 [1]: > 50 mg/kg
- ED50 [2]: 1.1 mg/kg
- ED50 [3]: 0.56 mg/kg
- ED50 [4]: 5.3 mg/kg
- ED50 [5]: 0.5 mg/kg
- ED50 [6]: 0.2 mg/kg
- ED50 [7]: 1.1 mg/kg
- ED50 [8]: 6.3 mg/kg
- ED50 [9]: > 50 mg/kg

SMILES: CC(c1nnc2n1-c1ccc(Cl)cc1C(c1ccccc1)=NC2)N(C)C (stereo not given)
- ED50 [1]: 17.7 mg/kg
- ED50 [2]: 12.5 mg/kg
- ED50 [3]: 5 mg/kg
- ED50 [4]: 10.5 mg/kg
- ED50 [5]: 5 mg/kg
- ED50 [6]: 17.7 mg/kg
- ED50 [7]: 17.7 mg/kg
- ED50 [8]: > 50 mg/kg
- ED50 [9]: 21 mg/kg

SMILES: C#CCNCc1nnc2n1-c1ccc(Cl)cc1C(c1ccccc1)=NC2
- ED50 [1]: 21 mg/kg
- ED50 [2]: 1.6 mg/kg
- ED50 [3]: 1.4 mg/kg
- ED50 [4]: > 50 mg/kg
- ED50 [5]: 1.4 mg/kg
- ED50 [6]: 0.7 mg/kg
- ED50 [7]: 3.1 mg/kg
- ED50 [8]: 30 mg/kg
- ED50 [9]: > 50 mg/kg

SMILES: C=CCNCc1nnc2n1-c1ccc(Cl)cc1C(c1ccccc1)=NC2
- ED50 [1]: > 50 mg/kg
- ED50 [2]: 3.1 mg/kg
- ED50 [3]: 0.55 mg/kg
- ED50 [4]: > 50 mg/kg
- ED50 [5]: 0.28 mg/kg
- ED50 [6]: 1.9 mg/kg
- ED50 [7]: 3.7 mg/kg
- ED50 [8]: 6 mg/kg
- ED50 [9]: > 50 mg/kg

SMILES: NOCc1nnc2n1-c1ccc(Cl)cc1C(c1ccccc1)=NC2
- ED50 [1]: > 50 mg/kg
- ED50 [2]: 0.2 mg/kg
- ED50 [3]: 0.1 mg/kg
- ED50 [4]: 12.5 mg/kg
- ED50 [5]: 0.08 mg/kg
- ED50 [6]: 0.84 mg/kg
- ED50 [7]: 0.2 mg/kg
- ED50 [8]: 0.7 mg/kg
- ED50 [9]: 42 mg/kg

SMILES: C#CCN(C)Cc1nnc2n1-c1ccc(Cl)cc1C(c1ccccc1)=NC2
- ED50 [1]: 18 mg/kg
- ED50 [2]: 0.5 mg/kg
- ED50 [3]: 0.14 mg/kg
- ED50 [4]: 30 mg/kg
- ED50 [5]: 0.14 mg/kg
- ED50 [6]: 0.3 mg/kg
- ED50 [7]: 0.3 mg/kg
- ED50 [8]: > 50 mg/kg
- ED50 [9]: 4.4 mg/kg

SMILES: CN(C)CCCN1c2ccccc2CCc2ccccc21 [IMIPRAMINE]
- ED50 [2]: 21 mg/kg
- ED50 [3]: 7 mg/kg
- ED50 [4]: 1.3 mg/kg
- ED50 [5]: 7 mg/kg
- ED50 [8]: > 50 mg/kg
- ED50 [9]: 0.9 mg/kg

SMILES: CCN(CC)Cc1nnc2n1-c1ccc(Cl)cc1C(c1ccccc1)=NC2
- ED50 [2]: 2.6 mg/kg
- ED50 [3]: 0.08 mg/kg
- ED50 [5]: 0.08 mg/kg
- ED50 [6]: 0.6 mg/kg
- ED50 [7]: 3.1 mg/kg
- ED50 [8]: > 50 mg/kg
